Measurements published in US20150218534A1, “MODIFIED DNA POLYMERASE” (TOYOBO CO., LTD., priority 2012, published 2015).

Experiments:
Format in all cases: biochemical
[1] = system: 1.3 kbp, 2.8 kbp, and 3.6 kbp of human β-globin; assay: Amplification of long-chain DNA in PCR using dUTP; settings: 1.3, 2.8, 3.6 kbp; 100% dUTP (FIGS. 9 and 10)
Method: Amplification of 1.3 kbp, 2.8 kbp, and 3.6 kbp of human β-globin in PCR using dUTP was compared. For amplification, each enzyme was used after being mixed with 1 μg of a KOD antibody per U of the enzyme. For PCR, components included in KOD-Plus-Ver. 2 (produced by Toyobo Co. Ltd.) were used. 50 μl of individual reaction solutions containing 1× PCR buffer, 1.5 mM MgSO4, dNTPs (dATP, dUTP, dCTP, dGTP) in an amount of 2 mM in which dTTP was replaced by dUTP, primers in an amount of 15 pmol (SEQ ID NOs: 25 and 26 for amplification of 1.3 kbp; SEQ ID NOs: 26 and 29 for amplification of 2.8 kbp; SEQ ID NOs: 30 and 31 for amplification of 3.6 kbp), 10 ng of human genomic DNA (produced by Roche), and 1 U of each respective enzyme mixed with the antibody were used. PCR was performed using a GeneAmp PCR system 9700 (Applied Biosystems) on the following schedule: preliminary reaction at 94° C. for 2 minutes, followed by 35 cycles, each cycle consisting of 98° C. for 10 seconds, 65° C. for 30 seconds, and 68° C. for about 1 minute per kbp (1 minute and 30 seconds for amplification of 1.3 kbp; 3 minutes for amplification of 2.8 kbp; 4 minutes for amplification of 3.6 kbp). As a control, amplification was also performed using Taq DNA polymerase. Taq DNA polymerase produced by Toyobo Co. Ltd. mixed with Anti-Taq High (produced by Toyobo Co. Ltd.) was used. 50 μl of a reaction solution containing 1× buffer included in Blend Taq, dNTPs (dATP, dUTP, dCTP, dGTP) in an amount of 2 mM in which dTTP was replaced by dUTP, primers in an amount of 10 pmol the same as the above), 10 ng of human genomic DNA (produced by Roche), and 2.5 U of the enzyme mixed with the antibody was used. PCR was performed using a GeneAmp PCR system 9700 (produced by Applied Biosystems) on the following schedule: preliminary reaction at 94° C. for 2 minutes, followed by 35 cycles, each cycle consisting of 94° C. for 30 seconds, 65° C. for 30 seconds, and 68° C. for about 1 minute per kbp (1 minute and 30 seconds for amplification of 1.3 kbp; 3 minutes for amplification of 2.8 kbp; 4 minutes for amplification of 3.6 kbp). After the completion of each individual reaction, 5 μl of each of the resulting reaction solutions was subjected to agarose electrophoresis, followed by ethidium bromide staining, and the amount of amplified DNA fragments was confirmed under ultraviolet irradiation. FIGS. 9 and 10 show the results.

Psychrobacter DNA = assay: PCR amplification using inosine-containing primers
Method: Using inosine-containing primers, the difference in PCR amplification was compared. For comparison, KOD mutants and KOD (wild-type), each mixed with 1 μg of a KOD antibody per U of the enzyme, and Taq DNA polymerase mixed with an antibody (a mixture of equal amounts of Taq DNA polymerase (produced by Toyobo Co. Ltd.) and Anti-Taq High (produced by Toyobo Co. Ltd.)) were used.
For PCR with the KOD mutants and PCR with the KOD, a buffer, MgSO4, and dNTPs included in KOD-Plus-Ver. 2 (produced by Toyobo Co. Ltd.) were used. 50 μl of individual reaction solutions containing 1× PCR buffer, 1.5 mM MgSO4, dNTPs (dATP, dTTP, dCTP, dGTP) in an amount of 0.2 mM, primers (SEQ ID NOs: 40 and 41) in an amount of 75 pmol or 150 pmol, 100 ng of Psychrobacter DNA, and 1 U of each respective enzyme mixed with the antibody were used. PCR was performed using a GeneAmp PCR system 9700 (Applied Biosystems) on the following schedule: preliminary reaction at 94° C. for 2 minutes, followed by 35 cycles, each cycle consisting of 98° C. for 10 seconds, 54° C. for 10 seconds, and 68° C. for 1 minute.
For PCR with the Taq DNA polymerase, 50 μl of a reaction solution containing 1× buffer included in Blend Taq (product of Toyobo), dNTPs (dATP, […], dCTP, dGTP) in an amount of 0.2 mM, primers in an amount of 75 pmol or 150 pmol (the same as above), 100 ng of Psychrobacter DNA, and 2.5 U of the enzyme mixed with the antibody was used. PCR was performed using a GeneAmp PCR system 9700 (Applied Biosystems) on the following schedule: preliminary reaction at 94° C. for 2 minutes, followed by 35 cycles, each cycle consisting of 94° C. for 30 seconds, 54° C. for 30 seconds, and 68° C. for 1 minute.
(§1) After the completion of each individual reaction, each of the resulting reaction solutions was analyzed using a DNA-1000 kit for MultiNA (produced by Shimadzu Corporation) to confirm amplified DNA fragments.

[2] = system: bisulfite-treated human genomic DNA (MINT1, RAR, THBS1, MINT31); assay: PCR amplification of bisulfite-treated DNA; settings: 40 cycles (FIG. 12)
Method: Using bisulfite-treated DNA as a template and various primers, the difference in PCR amplification was compared. For comparison, KOD mutant (Y7A/V93K) and KOD (wild-type), each mixed with 1 μg of a KOD antibody per U of the enzyme, and Taq DNA polymerase mixed with an antibody (a mixture of equal amounts of Taq DNA polymerase (produced by Toyobo Co. Ltd.) and Anti-Taq High (produced by Toyobo Co. Ltd.)) were used.
The bisulfite-treated DNA used was human genomic DNA (produced by Roche) that had been treated with a MethylCode Bisulfite Conversion Kit of Invitrogen.
For PCR with the KOD mutant (Y7A/V93K) and PCR with the KOD, a buffer, MgSO4, and dNTPs included in KOD-Plus-Ver. 2 (produced by Toyobo Co. Ltd.) were used. 50 μl of individual reaction solutions containing 1× PCR buffer, 1.5 mM MgSO4, dNTPs (dATP, dTTP, dCTP, dGTP) in an amount of 0.2 mM, primers (SEQ ID NOs: 42 and 43 for amplification of MINT1; SEQ ID NOs: 44 and 45for amplification of RAR; SEQ ID NOs: 46 and 47 for amplification of THBS1; SEQ ID NOs: 48 and 49 for amplification of MINT31) in an amount of 15 pmol, 1 μl of bisulfite-treated DNA extract, and 1 U of each respective enzyme mixed with the antibody were used. PCR was performed using a GeneAmp PCR system 9700 (Applied Biosystems) on the following schedule: preliminary reaction at 94° C. for 2 minutes, followed by 40 cycles, each cycle consisting of 98° C. for 10 seconds, 55° C. for 15 seconds, and 68° C. for 1 minute.
For PCR with the Taq DNA polymerase, 50 μl of a reaction solution containing 1× buffer included in Blend Taq (product of Toyobo), dNTPs (dATP, […], dCTP, dGTP) in an amount of 0.2 mM, primers in an amount of 15 pmol (the same as above), 1 μl of bisulfite-treated DNA extract, and 2.5 U of the enzyme mixed with the antibody was used. […]
as §1

[3] = system: 0.7 kbp of human β-globin amplified in PCR with dUTP; assay: Degradation with UNG of DNA amplified in the presence of dUTP; settings: 37° C. for 10 minutes (FIG. 13)
Method: It was confirmed whether 0.7 kbp of human β-globin amplified using KOD mutant with reduced uracil sensitivity (N210D/Y7A/P36H) in PCR with dUTP was degraded by being reacted with UNG. For PCR, components included in KOD-Plus-Ver. 2 (produced by Toyobo Co. Ltd.) were used. 50 μl of a reaction solution containing 1× PCR buffer, 1.5 mM MgSO4, dNTPs (dATP, dUTP, dCTP, dGTP) in an amount of 2 mM in which dTTP was replaced by dUTP, primers (SEQ ID NOs: 50 and 51) in an amount of 15 pmol, 10 ng of human genomic DNA (produced by Roche), and 1 U of the enzyme mixed with an antibody was used. PCR was performed using a GeneAmp PCR system 9700 (Applied Biosystems) on the following schedule: preliminary reaction at 94° C. for 2 minutes, followed by 35 cycles, each cycle consisting of 98° C. for 10 seconds, 60° C. for 30 seconds, and 68° C. for 1 minute. The amplification products were diluted with the above-mentioned 1× PCR buffer to 10 ng/μl, 8 μl of the diluted amplification products was mixed with 2 μl of various concentrations of UNG (produced by Roche), and the mixtures were reacted at 37° C. for 10 minutes. After the completion of each individual reaction, each of the mixtures was analyzed using a DNA-1000 kit for MultiNA (produced by Shimadzu Corporation) to confirm the amount of amplification products.

Molecule | amount of amplification of long-chain DNA with dUTP [1] | amount of inosine-containing primers at which amplification was observed (Psychrobacter DNA; 75 pmol or 150 pmol tested) [pmol] | amplification with inosine-containing primers (Psychrobacter DNA; primers 75 pmol or 150 pmol, 35 cycles (FIG. 11)) | amplification of bisulfite-treated DNA [2] | degradation with UNG of DNA amplified with the polymerase in the presence of dUTP [3]
Taq DNA polymerase: Taq DNA polymerase produced by Toyobo Co. Ltd. mixed with Anti-Taq High, used as control [reference compound] | cannot be amplified | 150 | stable amplification was confirmed | stable amplification was confirmed | 
Pfu Y7A/V93K: modified Pfu DNA polymerase with Y7A and V93K (protein, UniProt P61875 1-775, looked up, variant Y7A V93K) DNA polymerase: MILDVDAITEEGKPVIRLFKKENGKFKIEHDRTFRPYIYALLRDDSKIEEVKKITGERHGKIVRIVDVEKVEKKFLGKPITVWKLYLEHPQDKPTIREKVREHPAVVDIFEYDIPFAKRYLIDKGLIPMEGEEELKILAFDIETLYHEGEEFGKGPIIMISYADENEAKVITWKNIDLPYVEVVSSEREMIKRFLRIIREKDPDIIVTYNGDSFDFPYLAKRAEKLGIKLTIGRDGSEPKMQRIGDMTAVEVKGRIHFDLYHVITRTINLPTYTLEAVYEAIFGKPKEKVYADEIAKAWESGENLERVAKYSMEDAKATYELGKEFLPMEIQLSRLVGQPLWDVSRSSTGNLVEWFLLRKAYERNEVAPNKPSEEEYQRRLRESYTGGFVKEPEKGLWENIVYLDFRALYPSIIITHNVSPDTLNLEGCKNYDIAPQVGHKFCKDIPGFIPSLLGHLLEERQKIKTKMKETQDPIEKILLDYRQKAIKLLANSFYGYYGYAKARWYCKECAESVTAWGRKYIELVWKELEEKFGFKVLYIDTDGLYATIPGGESEEIKKKALEFVKYINSKLPGLLELEYEGFYKRGFFVTKKRYAVIDEEGKVITRGLEIVRRDWSEIAKETQARVLETILKHGDVEEAVRIVKEVIQKLANYEIPPEKLAIYEQITRPLHEYKAIGPHVAVAKKLAAKGVKIKPGMVIGYIVLRGDGPISNRAILAEEYDPKKHKYDAEYYIENQVLPAVLRILEGFGYRKEDLRYQKTRQVGLTSWLNIKKS | provided larger amounts of amplification |  |  |  | the DNA was degraded with UNG
